{"source": "patent US12258583B2", "about": "“Embryonic erythroblast-containing cell population and method for producing same, cell culture composition, and compound test method” (SUMITOMO CHEMICAL COMPANY, LIMITED, priority 2018, dated 2025)", "key": {"[1]": {"test_system": "embryonic erythroblast-containing cell population produced from human iPS cells", "assay": "Compound test using embryonic erythroblast-containing cell population produced from human iPS cells (heme, PPIX by LC-MS, viable cell count, viability)", "assay_type": "cell-based", "conditions": "DHA 0.5 or 1 μM, SA 10 or 30 μM, Day 18 (Day 8 after start of step (C)); for viable cell count: FIG. 12C; for viability of cells: FIG. 12D", "protocol": "The procedure illustrated in FIG. 11 was used to conduct a compound test using an embryonic erythroblast-containing cell population produced from human iPS cells. Differentiation of human iPS cells was induced by substantially the same procedure as in Example 1 to produce an embryonic erythroblast-containing cell population at Day 10 after the start of suspension culture (step (A)) (Step (A) and Step (B)). The cells were centrifuged for 5 min at 1000 rpm in a centrifuge (CF8DL; manufactured by Koki Holdings Co., Ltd.) to remove the supernatant. Next, STEMdiff+B medium was added to the precipitate. Subsequently, the cells were suspended and seeded at 2×10^5 cells in 1.5 mL of medium per well of a […] 6-well plate (manufactured by Corning, Inc.). Then, suspension culture was started (step (C) was started). To the medium at that time was added, as a test compound, dihydroartemisinin (hereinafter, referred to as “DHA”) (at a final concentration of 0.5 μM or 1 μM) or succinylacetone (hereinafter, referred to as “SA”) (at a final concentration of 10 μM or 30 μM). As a solvent control, DMSO was added.\nAt Day 18 (Day 8 after the start of step (C)) after the start of suspension culture (step (A)), the resulting cell population-containing medium was collected from the 6-well plate. Next, 0.4×10^5 cells to 1×10^5 cells were pipetted into an Eppendorf tube, and centrifuged for 3 min at 7500 rpm in a centrifuge (centrifuge 5424; manufactured by Eppendorf, Inc.) to remove the supernatant and give a cell pellet. The concentration of heme or protoporphyrin IX (hereinafter, referred to as “PPIX”) included in this cell pellet was quantified using liquid chromatography-mass spectrometry (LC-MS) (step (D)). A change in the concentration of heme or PPIX by addition of a test compound was examined to be able to evaluate how the test compound affected the heme biosynthesis pathway. In addition, the number of cells collected after the culture was counted to determine viability.\nThe concentration of heme or PPIX was represented in weight per 10^6 cells (ng/10^6 cells). DHA or SA, which is known to inhibit heme synthesis, caused a decrease in the heme concentration at Day 18 (Day 8 after the start of step (C)) after the start of suspension culture (step (A)) when compared to a solvent control (FIG. 12A). […] A hypothesis that DHA can induce anemia by inhibiting the most downstream ferrochelatase has been proposed (Clark et al. (2018) Birth Defects Research 110: 553-578). […] In addition, DHA or SA decreased the viable cell count and viability of cells included in the cell population (FIGS. 12C and D). In Example 1, the cell population included embryonic erythroblasts at a high percentage."}, "[2]": {"target": "T1, aminolevulinic acid dehydrogenase (Homo sapiens, UniProt P13716)", "T1 sequence (P13716 1-330)": "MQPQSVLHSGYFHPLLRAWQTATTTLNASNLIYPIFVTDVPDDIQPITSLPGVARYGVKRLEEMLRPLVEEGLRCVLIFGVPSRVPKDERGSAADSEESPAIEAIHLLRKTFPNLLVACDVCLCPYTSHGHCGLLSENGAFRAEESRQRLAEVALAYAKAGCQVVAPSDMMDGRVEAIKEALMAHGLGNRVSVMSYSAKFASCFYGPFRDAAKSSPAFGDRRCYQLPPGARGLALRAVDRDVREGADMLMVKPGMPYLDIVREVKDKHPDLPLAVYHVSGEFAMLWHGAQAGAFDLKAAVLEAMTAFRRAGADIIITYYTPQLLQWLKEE", "conditions": "Sassa et al. (1983); cited from earlier work"}, "K562 cells [3]": {"test_system": "K562 cells", "conditions": "known from the art; cited from earlier work"}, "K562 cells [4]": {"test_system": "K562 cells", "assay": "Differentiation culture of K562 cells with inducer, β-globin gene family expression by real-time PCR", "assay_type": "cell-based, human", "conditions": "1 mM sodium butyrate", "protocol": "(§1) The percentage of expression of the β-globin gene family expressed in cells of the above cell population was checked by real-time PCR. The floating cell population-containing medium at Day 10, 14, or 18 after the start of suspension culture (step (1)) was centrifuged for 5 min at 1000 rpm in a centrifuge (CF8DL; manufactured by Koki Holdings Co., Ltd.) to remove the supernatant. The resulting cells were washed with PBS (manufactured by Thermo Fisher Scientific, Inc.), centrifuged for 3 min at 7500 rpm in a centrifuge (centrifuge 5424; manufactured by Eppendorf, Inc.), and then subjected to total RNA extraction from the cells using an RNeasy Micro Kit (manufactured by QIAGEN, Inc.). The resulting total RNA was subjected to reverse transcription using SuperScript III (manufactured by Thermo Fisher Scientific, Inc.). Subsequently, the resulting cDNA was used as a template to perform real-time PCR by using TaqMan probes (manufactured by Thermo Fisher Scientific, Inc.) and a TaqMan Fast Advanced Master Mix (manufactured by Thermo Fisher Scientific, Inc.) in a 96-well plate under Fast PCR conditions according to the instruction in the package insert. The TaqMan probes used were human probes designated in Table 2.\n(§2) The gene product containing a TaqMan probe target sequence for each member of the β-globin gene family, namely ε-globin, γ-globin, or β-globin, was used to draw a standard curve. Then, the mRNA copy number for each β-globin gene family member expressed was quantified. The value obtained by dividing the copy number for each β-globin gene family member expressed by the total β-globin gene family copy number was shown as the percentage of expression of each β-globin gene family member. The production of embryonic erythroblast-containing cell population and the analysis by real-time PCR were independently triplicated to calculate the average and the standard error.\nHuman chronic myeloid leukemia-derived cell line K562 cells (obtained from Health Science Research Resources Bank) were used as other hematopoietic cells to check expression of ε-globin. K562 cells were cultured and maintained as follows. RPMI medium (Roswell Park Memorial Institute 1640; manufactured by Thermo Fisher Scientific, Inc.) containing 10% FBS (manufactured by Corning, Inc.) and 1% penicillin-streptomycin (manufactured by Sigma-Aldrich Co. LLC) (hereinafter, referred to as “K562 medium”) was used, and the cells were subjected to suspension culture on a low-adherent 6-cm dish (manufactured by Sumitomo Bakelite Co., Ltd.). The floating cell-containing medium was collected once every 7 days, and centrifuged for 5 min at 1000 rpm in a centrifuge (SCTSBA; manufactured by Koki Holdings Co., Ltd.) to remove the supernatant. The K562 cells were suspended in 5 mL of K562 medium and seeded at 5×10^5 cells per dish, and cultured under conditions at 37° C. and 5% CO2.\nIt has been known that addition of an inducer (sodium butyrate) causes an increase in the expression of εs-globin in K562 cells. Thus, a change in expression of ε-globin after addition of sodium butyrate was checked over time. For differentiation culture of K562 cells, K562 medium containing 1 mM sodium butyrate (manufactured by Sigma-Aldrich Co. LLC) was used. The cells were suspended in 5 mL of the above medium and seeded at 5×10^5 cells per low-adherent 6-cm dish, and cultured under conditions at 37° C. and 5% CO2. The floating cell-containing medium was collected at Day 0, 2, 4, or 8 after the start of differentiation culture, and centrifuged for 5 min at 1000 rpm in a centrifuge (SCTSBA; manufactured by Koki Holdings Co., Ltd.) to remove the supernatant.\nLike the evaluation protocol by real-time PCR in Example 1, the percentage of expression of each β-globin gene family member expressed in cells was determined by real-time PCR. […] About 30% or less of the β-globin gene family were an embryonic erythroblast marker ε-globin gene under any of the conditions."}, "REL cells": {"test_system": "REL cells", "assay": "Differentiation culture of REL cells with inducer, β-globin gene family expression by real-time PCR", "assay_type": "cell-based, rat", "conditions": "1 mM HMBA", "protocol": "as §1, §2\nREL cells, rat erythroleukemia cells, (obtained from Institute of Molecular Genetics and Genetic Engineering (Prof. Popovic Serbia)) were used as other hematopoietic cells to check a change in expression of ε-globin gene. REL cells were cultured and maintained as follows. RPMI medium (Roswell Park Memorial Institute 1640; manufactured by Thermo Fisher Scientific, Inc.) containing […] FBS (manufactured by Corning, Inc.) and 1% penicillin-streptomycin (manufactured by Sigma-Aldrich Co. LLC) (hereinafter, referred to as “REL medium”) was used, and the cells were subjected to suspension culture on a low-adherent 6-cm dish (manufactured by Sumitomo Bakelite Co., Ltd.). The floating cell-containing medium was collected once every 2 days, and centrifuged for 5 min at 1000 rpm in a centrifuge (SCT5BA; manufactured by Koki Holdings Co., Ltd.) to remove the supernatant. The REL cells were suspended in 5 mL of REL medium and seeded at 5×10^5 cells per dish, and cultured under conditions at 37° C. and 5% CO2.\nAn inducer (hexamethylene bisacetamide: HMBA) was added to REL cells to check a change in expression of ε-globin over time. For differentiation culture of REL cells, the medium used was REL medium containing HMBA (at a final concentration of 1 mM; manufactured by Sigma-Aldrich Co. LLC.). The REL cells were suspended in 5 mL of the above medium and seeded at 5×10^5 cells per low-adherent 6-cm dish (manufactured by Sumitomo Bakelite Co., Ltd.), and then cultured under conditions at 37° C. and 5% CO2. The floating cell-containing medium was collected at Day 0, 2, 4, or 8 after the start of differentiation culture, and centrifuged for 5 min at 1000 rpm in a centrifuge (SCT5BA; manufactured by Koki Holdings Co., Ltd.) to remove the supernatant.\nLike the evaluation protocol by real-time PCR in Example 1, the percentage of expression of each β-globin gene family member expressed in cells was determined by real-time PCR. […] Almost all of the β-globin gene family were an adult erythroblast marker β-globin gene under any of the conditions."}, "[5]": {"conditions": "Day 2 of differentiation culture"}, "[6]": {"conditions": "Day 4 of differentiation culture"}, "[7]": {"conditions": "Day 8 of differentiation culture"}}, "data": [{"smiles": "C[C@H]1[C@@H](O)O[C@@H]2O[C@@]3(C)CC[C@H]4[C@H](C)CC[C@@H]1[C@@]24OO3", "note": "[DHA, dihydroartemisinin]", "values": [{"measurement": "viable cell count", "setting": "[1]", "value": "decreased"}, {"measurement": "viability of cells", "setting": "[1]", "value": "decreased"}]}, {"smiles": "CC(=O)CC(=O)CCC(=O)O", "note": "[SA, succinylacetone]", "values": [{"measurement": "inhibition of aminolevulinic acid dehydrogenase, upstream in the heme biosynthesis pathway", "setting": "[2]", "value": "inhibits"}, {"measurement": "viable cell count", "setting": "[1]", "value": "decreased"}, {"measurement": "viability of cells", "setting": "[1]", "value": "decreased"}, {"measurement": "heme concentration compared to a solvent control", "setting": "[1]; LC-MS, ng/10^6 cells, FIG. 12A", "value": "decrease"}, {"measurement": "PPIX (protoporphyrin IX) concentration", "setting": "[1]; LC-MS, ng/10^6 cells, FIG. 12B", "value": "did not largely affect"}]}, {"smiles": "CCCC(=O)[O-].[Na+]", "note": "[sodium butyrate]", "values": [{"measurement": "expression of ε-globin in K562 cells after addition of inducer", "setting": "K562 cells [3]", "value": "increase"}, {"measurement": "Relative expression level of β-Globin (HBB) in the β-globin gene family", "setting": "K562 cells [4]; [5]", "value": "0 ± 0.0", "unit": "%"}, {"measurement": "Relative expression level of γ-Globin (HBG2/1) in the β-globin gene family", "setting": "K562 cells [4]; [5]", "value": "75 ± 1.6", "unit": "%"}, {"measurement": "Relative expression level of ε-Globin (HBE1) in the β-globin gene family", "setting": "K562 cells [4]; [5]", "value": "25 ± 1.6", "unit": "%"}, {"measurement": "Relative expression level of β-Globin (HBB) in the β-globin gene family", "setting": "K562 cells [4]; [6]", "value": "0 ± 0.0", "unit": "%"}, {"measurement": "Relative expression level of γ-Globin (HBG2/1) in the β-globin gene family", "setting": "K562 cells [4]; [6]", "value": "73 ± 1.3", "unit": "%"}, {"measurement": "Relative expression level of ε-Globin (HBE1) in the β-globin gene family", "setting": "K562 cells [4]; [6]", "value": "27 ± 1.3", "unit": "%"}, {"measurement": "Relative expression level of β-Globin (HBB) in the β-globin gene family", "setting": "K562 cells [4]; [7]", "value": "0 ± 0.0", "unit": "%"}, {"measurement": "Relative expression level of γ-Globin (HBG2/1) in the β-globin gene family", "setting": "K562 cells [4]; [7]", "value": "70 ± 1.9", "unit": "%"}, {"measurement": "Relative expression level of ε-Globin (HBE1) in the β-globin gene family", "setting": "K562 cells [4]; [7]", "value": "30 ± 1.9", "unit": "%"}]}, {"smiles": "CC(=O)NCCCCCCNC(C)=O", "note": "[HMBA, hexamethylene bisacetamide]", "values": [{"measurement": "Relative expression level of β-Globin (Hbb) in the β-globin gene family", "setting": "REL cells; [5]", "value": "100 ± 0.0", "unit": "%"}, {"measurement": "Relative expression level of γ-Globin (Hbg1) in the β-globin gene family", "setting": "REL cells; [5]", "value": "0 ± 0.0", "unit": "%"}, {"measurement": "Relative expression level of ε-Globin (Hbe1) in the β-globin gene family", "setting": "REL cells; [5]", "value": "0 ± 0.0", "unit": "%"}, {"measurement": "Relative expression level of β-Globin (Hbb) in the β-globin gene family", "setting": "REL cells; [6]", "value": "100 ± 0.0", "unit": "%"}, {"measurement": "Relative expression level of γ-Globin (Hbg1) in the β-globin gene family", "setting": "REL cells; [6]", "value": "0 ± 0.0", "unit": "%"}, {"measurement": "Relative expression level of ε-Globin (Hbe1) in the β-globin gene family", "setting": "REL cells; [6]", "value": "0 ± 0.0", "unit": "%"}, {"measurement": "Relative expression level of β-Globin (Hbb) in the β-globin gene family", "setting": "REL cells; [7]", "value": "99 ± 0.2", "unit": "%"}, {"measurement": "Relative expression level of γ-Globin (Hbg1) in the β-globin gene family", "setting": "REL cells; [7]", "value": "1 ± 0.1", "unit": "%"}, {"measurement": "Relative expression level of ε-Globin (Hbe1) in the β-globin gene family", "setting": "REL cells; [7]", "value": "0 ± 0.0", "unit": "%"}]}]}
